Where “and” joins values, the source holds several entries; their conditions need not be identical. Equal values may be shown once.
Conditions: Liquid, Vibrating tube method

CCCCCC(=O)OCC(COC(=O)CCCCC)(COC(=O)CCCCC)COC(=O)CCCCC [pentaerythritol tetrahexanoate]
Conditions | mass density
343.16 K, 33002 kPa | 980 kg/m3
343.16 K, 33028 kPa | 980.1 kg/m3
343.16 K, 33054 kPa | 980.2 kg/m3
343.16 K, 33085 kPa | 980.1 kg/m3
343.16 K, 33111 kPa | 980.2 kg/m3
343.16 K, 33138 kPa | 980.1 kg/m3
343.16 K, 33170 kPa | 980.2 kg/m3
343.16 K, 33198 kPa | 980.2 kg/m3
343.16 K, 33224 kPa | 980.2 kg/m3
343.16 K, 33250 kPa | 980.3 kg/m3
343.16 K, 33277 kPa | 980.2 kg/m3
343.16 K, 33310 kPa | 980 kg/m3
343.16 K, 33337 kPa | 980.3 kg/m3
343.16 K, 33364 kPa | 980.3 kg/m3
343.16 K, 33397 kPa | 980.3 kg/m3
343.16 K, 33424 kPa | 980.3 kg/m3
343.16 K, 33458 kPa | 980.4 kg/m3
343.16 K, 33486 kPa | 980.4 kg/m3
343.16 K, 33515 kPa | 980.2 kg/m3
343.16 K, 33551 kPa | 980.4 kg/m3
343.16 K, 33582 kPa | 980.5 kg/m3
343.16 K, 33613 kPa | 980.4 kg/m3
343.16 K, 33643 kPa | 980.7 kg/m3
343.16 K, 33678 kPa | 980.5 kg/m3
343.16 K, 33700 kPa | 980.5 kg/m3
343.16 K, 33718 kPa | 980.5 kg/m3
343.16 K, 33738 kPa | 980.5 kg/m3
343.16 K, 33761 kPa | 980.6 kg/m3
343.16 K, 33781 kPa | 980.6 kg/m3
343.16 K, 33806 kPa | 980.6 kg/m3
343.16 K, 33826 kPa | 980.6 kg/m3
343.16 K, 33846 kPa | 980.6 kg/m3
343.16 K, 33868 kPa | 980.6 kg/m3
343.16 K, 33883 kPa | 980.7 kg/m3
343.16 K, 33898 kPa | 980.7 kg/m3
343.16 K, 33914 kPa | 980.8 kg/m3
343.16 K, 33932 kPa | 980.6 kg/m3
343.16 K, 33948 kPa | 980.7 kg/m3
343.16 K, 33966 kPa | 980.7 kg/m3
343.16 K, 33982 kPa | 980.5 kg/m3
343.16 K, 33995 kPa | 980.7 kg/m3
343.16 K, 34005 kPa | 980.7 kg/m3
343.16 K, 34016 kPa | 980.8 kg/m3
343.16 K, 34026 kPa | 980.7 kg/m3
343.16 K, 34034 kPa | 980.8 kg/m3
343.16 K, 34035 kPa | 980.7 kg/m3
343.16 K, 34036 kPa | 980.8 kg/m3
343.16 K, 34037 kPa | 980.9 kg/m3 and 980.6 kg/m3
343.16 K, 34047 kPa | 980.7 kg/m3
343.16 K, 34048 kPa | 980.7 kg/m3
343.16 K, 34058 kPa | 980.8 kg/m3
343.16 K, 34091 kPa | 980.7 kg/m3
343.16 K, 34101 kPa | 980.8 kg/m3
343.16 K, 34114 kPa | 980.8 kg/m3
343.16 K, 34125 kPa | 980.7 kg/m3
343.16 K, 34137 kPa | 980.8 kg/m3
343.16 K, 34151 kPa | 980.7 kg/m3
343.16 K, 34163 kPa | 980.8 kg/m3
343.16 K, 34177 kPa | 980.7 kg/m3
343.16 K, 34189 kPa | 980.8 kg/m3
343.16 K, 34190 kPa | 980.9 kg/m3
343.16 K, 34198 kPa | 980.8 kg/m3
343.16 K, 34203 kPa | 980.8 kg/m3
343.16 K, 34211 kPa | 980.7 kg/m3
343.16 K, 34217 kPa | 980.8 kg/m3
343.16 K, 34223 kPa | 980.8 kg/m3
343.16 K, 34231 kPa | 980.7 kg/m3
343.16 K, 34237 kPa | 980.9 kg/m3
343.16 K, 34243 kPa | 980.7 kg/m3
343.16 K, 34248 kPa | 980.8 kg/m3
343.16 K, 34251 kPa | 980.9 kg/m3
343.16 K, 34253 kPa | 980.9 kg/m3
343.16 K, 34254 kPa | 980.8 kg/m3 and 980.9 kg/m3
343.16 K, 34255 kPa | 980.8 kg/m3 and 980.9 kg/m3
343.16 K, 34256 kPa | 980.8 kg/m3 and 980.9 kg/m3 and 980.7 kg/m3
343.16 K, 34257 kPa | 980.9 kg/m3
343.16 K, 34258 kPa | 980.8 kg/m3 and 980.7 kg/m3
343.16 K, 34259 kPa | 981 kg/m3
343.16 K, 34262 kPa | 980.9 kg/m3
343.16 K, 34263 kPa | 980.8 kg/m3 and 980.9 kg/m3
343.16 K, 34264 kPa | 980.9 kg/m3
343.16 K, 34265 kPa | 980.9 kg/m3 and 980.8 kg/m3
343.16 K, 34266 kPa | 980.8 kg/m3 and 980.9 kg/m3
343.16 K, 34267 kPa | 980.8 kg/m3 and 981 kg/m3 and 980.9 kg/m3
343.16 K, 34268 kPa | 980.8 kg/m3 and 980.9 kg/m3
343.16 K, 34269 kPa | 980.8 kg/m3 and 980.9 kg/m3
343.16 K, 34270 kPa | 980.9 kg/m3 and 980.8 kg/m3
343.16 K, 34271 kPa | 980.8 kg/m3
343.16 K, 34272 kPa | 981 kg/m3
343.16 K, 34273 kPa | 980.9 kg/m3
343.16 K, 34274 kPa | 980.9 kg/m3
343.16 K, 34275 kPa | 980.8 kg/m3
343.16 K, 34276 kPa | 980.9 kg/m3
343.16 K, 34277 kPa | 980.9 kg/m3
343.16 K, 34278 kPa | 980.9 kg/m3
343.16 K, 34279 kPa | 980.8 kg/m3
343.16 K, 34283 kPa | 980.9 kg/m3
343.16 K, 34284 kPa | 980.9 kg/m3 and 980.8 kg/m3 and 981 kg/m3
343.16 K, 34285 kPa | 980.9 kg/m3
343.16 K, 34286 kPa | 980.8 kg/m3
343.16 K, 34287 kPa | 980.9 kg/m3 and 981 kg/m3
343.16 K, 34288 kPa | 980.9 kg/m3
343.16 K, 34289 kPa | 980.9 kg/m3
343.16 K, 34290 kPa | 980.8 kg/m3 and 980.9 kg/m3
343.16 K, 34291 kPa | 980.9 kg/m3
343.16 K, 34292 kPa | 980.9 kg/m3
343.16 K, 34293 kPa | 980.9 kg/m3
343.16 K, 34294 kPa | 980.9 kg/m3
343.16 K, 34295 kPa | 980.8 kg/m3
343.16 K, 34296 kPa | 980.9 kg/m3
343.16 K, 34297 kPa | 980.9 kg/m3
343.16 K, 34298 kPa | 980.9 kg/m3 and 981 kg/m3
343.16 K, 34300 kPa | 980.9 kg/m3
343.16 K, 34301 kPa | 980.8 kg/m3
343.16 K, 34303 kPa | 980.9 kg/m3
343.16 K, 34305 kPa | 980.9 kg/m3
343.16 K, 34307 kPa | 980.9 kg/m3
343.16 K, 34310 kPa | 981 kg/m3
343.16 K, 34312 kPa | 980.8 kg/m3
343.16 K, 34315 kPa | 980.9 kg/m3
343.16 K, 34319 kPa | 980.9 kg/m3
343.16 K, 34322 kPa | 980.9 kg/m3
343.16 K, 34326 kPa | 980.9 kg/m3
343.16 K, 34332 kPa | 980.8 kg/m3
343.16 K, 34336 kPa | 980.8 kg/m3
343.16 K, 34342 kPa | 980.9 kg/m3
343.16 K, 34350 kPa | 980.9 kg/m3
343.16 K, 34356 kPa | 980.9 kg/m3
343.16 K, 34361 kPa | 980.9 kg/m3
343.16 K, 34363 kPa | 980.9 kg/m3
343.16 K, 34369 kPa | 981 kg/m3
343.17 K, 21206 kPa | 972.4 kg/m3
343.17 K, 30224 kPa | 978.4 kg/m3
343.17 K, 30254 kPa | 978.3 kg/m3
343.17 K, 30283 kPa | 978.4 kg/m3
343.17 K, 30312 kPa | 978.5 kg/m3
343.17 K, 30333 kPa | 978.4 kg/m3
343.17 K, 30358 kPa | 978.5 kg/m3
343.17 K, 30380 kPa | 978.5 kg/m3
343.17 K, 30402 kPa | 978.4 kg/m3
343.17 K, 30428 kPa | 978.5 kg/m3
343.17 K, 30449 kPa | 978.5 kg/m3
343.17 K, 30471 kPa | 978.6 kg/m3
343.17 K, 30497 kPa | 978.5 kg/m3
343.17 K, 31456 kPa | 979.2 kg/m3
